According to patent publication US6582662B1, “Devices and methods for the performance of miniaturized homogeneous assays” (Tecan Trading AG, priority 1999, dated 2003):

Biological target: alkaline phosphatase
Assay: Enzyme inhibition assay on microfluidic disc (alkaline phosphatase / PNPP, reflectance at 430 nm)
Assay type: biochemical
Details: end-point measurement 2 minutes after fluid pumped into detection chambers; dose-response fitted to Langmuir isotherm; substrate PNPP 0.5 mM; alkaline phosphatase 1 mg/mL; 0.1M glycine, 0.5 mM MgCl2; read-out: inhibition constant
Procedure: The platform shown in FIGS. 1 through 6 was used to perform 96 simultaneous enzyme inhibition assays as model homogeneous assays. In an enzyme inhibition assay, the effect of a compound present in a first fluid (“A”) upon the capacity of an enzyme present in a second fluid (fluid “B”) to catalyze a reaction, typically of a substrate in a third fluid (“C”) is determined. The reaction was chosen to give a change in a readily-measured parameter of the fluid, such as its optical density, or to produce a fluorescent moiety. When no inhibitor was present in fluid A, mixing solution A with enzyme solution B had no effect: enzyme activity detected in this assay was the maximum detected and provided the largest change in the measured parameter. However, if an inhibitor was present in fluid A, mixing fluid A with fluid B resulted, after a sufficient time in a chemical reaction or other change induced by the inhibitor in most or all of the enzyme molecules, rendering them incapable of catalyzing the desired reaction. If this solution was mixed with the substrate solution, little or no change in the measured parameter was seen.
The system chosen to model homogeneous assays consisted of theophylline as inhibitor, alkaline phosphatase as the enzyme, and p-nitrophenol phosphate (PNPP) as the substrate. […]

Cn1c(=O)c2[nH]cnc2n(C)c1=O [theophylline]
Ki: 9.7 ± 0.9 mM
